Measurements as given in patent US10471054B2, “CDK1 inhibitors of acetyl chrysin mannich base derivatives, synthesis and use thereof” (priority 2016, dated 2019).
Converted amounts (≈) assume the structure as drawn. Read-outs that look alike come from different tables or passages of the source.

Assays:
[1] = Solubility in Octanol, water and pH media; format: physicochemical
Protocol: The solubility and log P of acetyl ChrysinMannich base derivatives see TABLE 1.
CH-j is pKa 5.3, log P 1.63 in Octanol/Water at 37° C. […] (BA-j 77m/ml). CH-j belongs to BCS II (low solubility, high permeability) and solubility presents the pH dependence. […] CH-j is a pH dependent fast release. […] It is speculated that CH-j has more appropriate log P and solubility with more likely entering tissue cells than others solubility acetyl Chrysin Mannich base derivatives.
(about 20 times BA-f 277 μg/ml) and 564 μg/ml in water at 37° C. (about 1000 times BA-f 0.53m/ml). CH-f is BCS I (high solubility and permeability) and solubility presents the pH dependence. It is speculated that CH-f has more appropriate log P and solubility with entering systemic (blood system and tissue cells) than others solubility acetyl Chrysin Mannich base derivatives.

Hep G2 = experiment: NaOCl level, BODTPY-OCl fluorescent probe imaging; format: cell-based; details: CH-j 40 μM or HCPT 5 μM for 4 h
Protocol: In vitro cultured Hep G2 was given by BODTPY-OCl selective fluorescent probe 5 μM for 0.5 h, added CH-j 40 μM or HCPT 5 μM for 4 h, and performed fluorescence imaging.

BGC-823 [2] = experiment: Anti-cancer cells proliferation activity (MTT, 48 h); format: cell-based; details: Homo sapiens, BGC-823, MTT
Protocol: Anti-cancer cells proliferationactivity of in vitro CH-j and CH-f were shown in TABLE 2 for the results of the screening of 5 cancers cells.
FIG. 2: The initial screening results of the anticancer activity of BGC-823 (MTT, for 48 h), and X-coordinate is the drug concentration (MTT, for 48 h), and Y-coordinate the cell survival rate (%) in vitro.

MCF-7 = experiment: Hoechst 33258 fluorescence staining, apoptosis; format: cell-based; details: 0, 5, 10, 20 μM for 24 h
Protocol: Hoechst 33258 is an active fluorescent dye with DNA specific binding, which is mainly combined with base area of DNA, which emits blue fluorescence when stimulated by ultraviolet light. The living cells emit uniform fluorescence, the apoptotic cells are bright blue fluorescence due to their chromatin fixation, dense and concentrated nuclei.
MCF-7 was treated with 0, 5, 10, 20 μM of CH-f and CH-j for 24 h, Hoechst 33258 fluorescence staining, and cell morphological changes were shown in FIG. 3-1. […] CH-f and CH-j are completely different from the cytotoxic drug HCPT, which appears to be apoptotic at low doses and necrotic at high doses in BGC-823.
FIG. 3-1 Hoechst 33258 staining results for MCF-7.

BGC-823 [3] = experiment: PI staining flow cytometry, cell cycle; format: cell-based; details: 24 h
Source text: PI specificity is combined with DNA, and the fluorescence intensity is in a good linear relationship with the combination of PI. After cell fixation, PI staining was used for quantitative analysis of DNA content in cells by flow cytometry. Since the amount of DNA in different cell cycles varies, it can be determined that the drug actions on the cell cycle. In cell apoptosis, there are many characteristic changes in the cell and molecular level, and the most characteristic of the change of nucleus is the change of nucleus. Due to activate apoptosis cells, DNA degradation, reduce the cell DNA, and therefore can be in the GO/G1 peak appeared before a diploid apoptosis peak (sub-G1), […] pyrolysis peak integer times of DNA, no less than […] pyrolysis peak.
In addition, high concentrations of drugs can also reduce the proportion of S stage cells.
FIG. 3-2 PI staining results for BGC-823.

caspase-3, 8, 9 = experiment: Caspase activity in BGC-823; format: cell-based; details: range of 0-10 μM, 24 h
Source text: Caspase is a series of cysteinyl aspartate specific proteinase in the cytoplasm of protease with closely related to cell apoptosis, and participate in cell growth, differentiation and apoptosis regulation. Caspase is same key enzymes in apoptosis process and in the apoptosis of the mediated cells, there are almost all apoptotic signaling pathways involved in the pathway of caspase. […] Caspase-8 is an early starter for the induction of apoptosis, and the caspase-3 is the late executor. Pro-caspase-9 is dissociation with phosphorylation surviving, and inhibiting cell apoptosis and promoting division. Pro-caspase-9 by H2O2 is oxidized into caspase-9-S—S-caspase-9 with inhibiting cell division and inducing apoptosis. H2O2 can directly oxidize and activate caspase, hydrolyze antiapoptotic protein Bcl-2 and Bcl-xl substrate, so selectively induce apoptosis of cancer cells and reduce the damage of normal cells.
FIG. 3-4: caspases: X-coordinate is CH-j concentration (μM) and Y-coordinate the activity of caspase (%) for BGC-823.

HIF-1α = HIF-1α expression in BGC-823, immune-printing; format: cell-based; details: 0, 2.5, 5, 10 μM for 1 h, then insulin
Protocol: (§1) BGC-823 was treated with 0, 2.5, 5, 10 μM CH-j for 1 h, then the 2 μM insulin was added, and 2 h were cultured, and the cells were collected and lysed.
(§2) FIG. 4: CH-j effect on the HIF-1 of BGC-823 was treated with 0, 2.5, 5, 10 μM CH-j for 1 h, then added 0.2 μM insulin culture for 24 h, and the HIF-1α and HIF-1β were determined by the immune imprinting method.

HIF-1β = HIF-1β expression in BGC-823, immune-printing; format: cell-based; details: 0, 2.5, 5, 10 μM for 1 h, then insulin
Protocol: as §1, §2

[4] = Main metabolic pathways, glucose aldehyde acid metabolism; details: in vivo
Source text: (I) Neutral degradation in normal cells: CH-j is hydrolyzing into Hydroxy-phenyl-acetic acid (M152), 1-(2, 4, 6-Trihydroxy-phenyl)-ethanone (M168) and N-hydroxymethyl-piperidin-4-one (M129) as the main metabolic pathways.
Flavopiridol, p276-00 and Vorciclib of Chrysin-organic amine derivatives, duo to mainly C7-glucose aldehyde acidification metabolites by oral, only a small amount is into the tissue cells. In the tissue cells, it is not easy to be metabolized in part because of the organic amine substituents, thus producing strong cytotoxicity. […] CH-j can enhance I phase metabolism and inhibit II phase metabolism. […] [Scientific Reports, 2015, 5: 13626; Fitoterapia, 2015, 107:36-34.]

CDK1 = CDK1 (Homo sapiens, UniProt P06493); experiment: CDK1 inhibition activity; format: biochemical
CDK1, sequence (P06493 whole entry, species assumed): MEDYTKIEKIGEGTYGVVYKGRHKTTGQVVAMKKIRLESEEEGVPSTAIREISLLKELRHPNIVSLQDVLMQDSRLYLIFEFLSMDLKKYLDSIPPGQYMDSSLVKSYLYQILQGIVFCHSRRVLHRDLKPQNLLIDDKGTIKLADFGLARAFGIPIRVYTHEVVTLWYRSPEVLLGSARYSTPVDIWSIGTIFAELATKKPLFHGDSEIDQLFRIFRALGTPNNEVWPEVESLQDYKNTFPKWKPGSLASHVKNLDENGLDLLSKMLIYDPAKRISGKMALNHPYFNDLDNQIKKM
CDK1, sequence (P14635 whole entry partner, species assumed): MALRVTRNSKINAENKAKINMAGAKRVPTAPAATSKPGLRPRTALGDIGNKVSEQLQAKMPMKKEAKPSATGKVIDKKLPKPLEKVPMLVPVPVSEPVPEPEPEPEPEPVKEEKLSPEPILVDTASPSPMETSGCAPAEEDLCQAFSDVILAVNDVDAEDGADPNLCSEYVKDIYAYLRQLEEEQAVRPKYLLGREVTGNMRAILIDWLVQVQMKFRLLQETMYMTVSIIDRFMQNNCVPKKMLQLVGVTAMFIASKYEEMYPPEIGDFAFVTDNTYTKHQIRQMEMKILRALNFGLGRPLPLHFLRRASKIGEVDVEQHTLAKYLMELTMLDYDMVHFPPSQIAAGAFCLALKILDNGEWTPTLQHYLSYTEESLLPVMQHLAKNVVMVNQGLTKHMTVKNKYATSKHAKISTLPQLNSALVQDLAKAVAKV

- BCS class [1]: BCS II
- Solubility in Octanol relative to BA analogue ([1]; CH-j vs BA-j, CH-f vs BA-f, 37° C.): about 6 times
- solubility ([1]; organic solvent or mixture, Octanol, 37° C., read-out: Solubility in Octanol): 2420 µg/mL (≈ 5910 µM)
- solubility ([1]; pH 1.2, simulated gastric fluid, 0.1M HCl (pH1.2), 37° C., read-out: Solubility): 574 µg/mL (≈ 1400 µM)
- solubility ([1]; pH 4.5, aqueous buffer, 0.05M NaAC-HAC buffered solution (pH4.5), 37° C., read-out: Solubility): 528 µg/mL (≈ 1290 µM)
- solubility ([1]; pH 6.8, aqueous buffer, PBS (pH6.8), 37° C., read-out: Solubility): 78 µg/mL (≈ 191 µM)
- solubility ([1]; water, 37° C., read-out: Solubility in H2O): 56 µg/mL (≈ 137 µM)
- IC50 (BGC-823 [2]): 6.3 ± 1.13 µM
- Dependence of metabolic pathway on CYP3A4 [4]: independent of CYP3A4
- CDK1 inhibition, times stronger than BA-j (CDK1): about 2 times
Structure (SMILES): CC(=O)c1c(O)c(CN2CCC(O)CC2)c2oc(-c3ccccc3)cc(=O)c2c1O [CH-j, 6-Acetyl-5,7-dihydroxy-8-(4-hydroxy-piperidin-1-ylmethyl)-2-phenyl-chromen-4-one]
- NaOCl, yellow green fluorescence (Hep G2): not present yellow green fluorescence
- Apoptosis by Hoechst 33258 staining (MCF-7): apoptosis cell percentage in dose dependent increase
- Cell cycle effect by PI staining (BGC-823 [3]): block the BGC-823 in G1, G2 phase
- Activation of caspase-3, 8, 9 (caspase-3, 8, 9): activated caspase-3, 8, 9 both in a dose-dependent upward trend
- HIF-1α expression (HIF-1α): inhibited HIF-1α expression in a dose-dependent manner
- HIF-1β expression (HIF-1β): without affecting the expression of HIF-1β
- CDK1 50% inhibitory concentration (CDK1; read-out: inhibiting CDK1 CC50): 150 nM
